Data from US11473089B2, “Aptamer for ADAMTS5 and use for aptamer for ADAMTS5” (RIBOMIC INC., priority 2017, dated 2022).

T1: ADAMTS5 (Homo sapiens, UniProt Q9UNA0)
T1 construct: purchased R&D systems
T1 sequence (Q9UNA0 262-930): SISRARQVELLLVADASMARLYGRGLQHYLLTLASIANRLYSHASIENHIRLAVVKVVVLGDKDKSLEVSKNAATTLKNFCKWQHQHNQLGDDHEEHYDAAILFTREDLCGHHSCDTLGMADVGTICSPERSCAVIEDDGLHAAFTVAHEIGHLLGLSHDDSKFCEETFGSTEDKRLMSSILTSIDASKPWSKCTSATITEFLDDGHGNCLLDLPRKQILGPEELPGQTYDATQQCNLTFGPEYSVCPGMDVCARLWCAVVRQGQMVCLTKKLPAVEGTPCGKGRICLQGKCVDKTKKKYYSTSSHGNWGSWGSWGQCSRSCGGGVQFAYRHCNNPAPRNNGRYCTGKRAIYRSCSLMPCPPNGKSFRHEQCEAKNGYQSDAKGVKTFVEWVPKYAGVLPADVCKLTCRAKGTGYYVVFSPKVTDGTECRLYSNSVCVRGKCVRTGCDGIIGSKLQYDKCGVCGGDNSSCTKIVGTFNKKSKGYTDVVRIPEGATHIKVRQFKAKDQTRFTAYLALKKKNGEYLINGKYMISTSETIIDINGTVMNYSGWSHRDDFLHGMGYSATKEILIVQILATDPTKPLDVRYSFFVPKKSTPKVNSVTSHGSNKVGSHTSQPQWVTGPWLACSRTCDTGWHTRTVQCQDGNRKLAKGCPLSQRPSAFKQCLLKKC

B1: 1 (nucleic acid)
chain: GGGUACGACCGUCGUACGAUUGGGGCCUCCACAGCUGCUCAGCUUGGACUAAACCAAUAAGAGACUAACGCCUAGCGUAC
modifications: 2'-fluoro at CU, RNA at AG, backbone not given here
B2: 2 (nucleic acid)
chain: GGGUACGACCGUCGUACGAUUGGGCCUCCACAGCUGCUCAGCUUGGACUAAACCAAUAAGAGACUAACGCCUAGCGUAC
modifications: 2'-fluoro at CU, RNA at AG, backbone not given here

These molecules were tested against T1, ADAMTS5 (assay: ADAMTS5 enzyme inhibition, aggrecan G1-IGD-G2 cleavage, SDS-PAGE detection (evaluation method 1)). Conditions: Table 2; mean of four measurements; 5 nM ADAMTS5, 50 μg/mL substrate; read-out: IC50, inhibitory activity against ADAMTS5.
Format: biochemical
Procedure: Whether an aptamer having the nucleotide sequence shown in SEQ ID NO: 1 inhibits the enzyme activity of ADAMTS5 was evaluated by the following method. As a substrate of ADAMTS5, the G1-IGD-G2 domain of aggrecan (manufactured by R&D systems) was used. ADAMTS5 specifically cleaves in between the 392nd glutamic acid and the 393rd alanine in the G1-IGD-G2 domain and produces two fragments. These fragments have faster electrophoretic mobility than uncleaved G1-IGD-G2. Thus, the enzyme activity of ADAMTS5 can be measured by quantifying the band intensity of G1-IGD-G2 by SDS-PAGE electrophoresis. The assay was performed in a solution A buffer with a reaction mixture volume of 10 μL. First, a mixture (10 μL) of a nucleic acid and ADAMTS5 was prepared and incubated at 25° C. for 15 min. To a substrate solution (5 μL) diluted with solution A was added a mixture (5 μL) of the nucleic acid and ADAMTS5 to start the enzyme reaction. The final concentration of ADAMTS5 in the reaction solution was 5 nM, and the final substrate concentration was 50 μg/mL. The reaction solution was incubated at 37° C. for 2 hr, 2 μL of solution D was added, and the mixture was heated at 95° C. for 2 min to stop the enzyme reaction of ADAMTS5. Solution D contains 0.25 M tris (pH 6.8), 10% SDS, 50% glycerol, 0.25% bromo phenolblue, and 20% 2-mercaptoethanol. The heat-treated reaction solution was electrophoresed by 7.5% SDS-PAGE and stained with SYPRO Orange (manufactured by Sigma-Aldrich). The staining was performed according to the manual of Sigma-Aldrich and detected using STORM840 manufactured by GE Healthcare. For analytical curves, uncleaved substrates 1000 ng, 400 ng, 160 ng, 64 ng, 25.6 ng, 10.24 ng, and 4.1 ng were electrophoresed, and staining and detection were performed in the same manner. The amount of uncleaved substrate in each reaction solution was quantified from the band intensity and the standard curve. The substrate cleavage efficiency of ADAMTS5 under these reaction conditions was 80-100%. The inhibition rate of the test substance was calculated using the following equation. inhibition rate (%)=(Sapt−SE)/(S0−SE)×100 wherein Sapt is the amount of an uncleaved substrate with the addition of a test substance, SE is the residual amount of an uncleaved substrate with the addition of ADAMTS5, and S0 is the residual amount of an uncleaved substrate without the addition of ADAMTS5.
The concentration of an inhibitor necessary for inhibiting 50% of the enzyme activity (IC50) was determined. IC50 is a mean of four measurements.

Molecule	IC50
B1	16.8 ± 2.8 nM

Each molecule was assayed against T1, ADAMTS5 (assay: binding activity to ADAMTS5 by surface plasmon resonance (Biacore T100)). Conditions: Table 1; 0.1 μM ADAMTS5 analyte, aptamer immobilized on SA chip.
Procedure: The binding activity of aptamers having the nucleotide sequences shown in SEQ ID NOs: 1 and 2 to ADAMTS5 was evaluated by the surface plasmon resonance method. Biacore T100 manufactured by GE Healthcare was used for the measurement. The SA chip was used as the sensor chip, which had streptavidin immobilized thereon. About 800 RU of a 16-nucleotide Poly dT with biotin at the 5′-terminal was bound on the chip. […] ADAMTS5 for analyte was prepared at 0.1 μM, and injected at a flow rate of 30 μL/min for 60 sec. As the running buffer, solution C was used. The solution C is a mixed solution of 300 mM sodium chloride, 5.4 mM potassium chloride, 1.8 mM calcium chloride, 0.8 mM magnesium chloride, 20 mM tris (pH 7.6), and 0.05% Tween20.
SEQ ID NO: 2 has a sequence with one base deletion from the continuous 4 G bases in the consensus sequence, and it was shown from the measurement results of the binding activity that the continuous 4 G bases in the consensus sequence are important for the activity of aptamers. Sensorgram showing the binding of an aptamer having the nucleotide sequence shown in SEQ ID NO: 1 to ADAMTS5 is presented in FIG. 2. In Table 1, “++” indicates those with the proportion of ADAMTS5 binding amount (RU value) to the amount of aptamer immobilized on the SA chip (RU value) of not less than 40%, “+” indicates those with the proportion of not less than 10% and less than 40%, and “−” indicates those with the proportion of less than 10%.
The binding activity and enzyme inhibitory activity of aptamers having nucleotide sequences shown in SEQ ID NOs: 16-25 to ADAMTS5 were measured. The binding activity was evaluated by the surface plasmon resonance method. For the measurement, a method similar to that in Example 1 was used. The enzyme inhibitory activity was measured by a method similar to that in Example 1. […] The negative control nucleic acid refers to the nucleic acid pool used in the first round of the SELEX method. The “++” indicates those with the proportion of ADAMTS5 binding amount (RU value) to the amount of aptamer immobilized on the SA chip (RU value) of not less than 40%, and “+” indicates those with the proportion of less than 40%. […] “n.d.” means not determined.
The binding activity of the nucleic acids shown in SEQ ID NOs: 30-45 to ADAMTS5 was measured. The binding activity was evaluated by the surface plasmon resonance method. In the Table, “++” indicates those with the proportion of ADAMTS5 binding amount (RU value) to the amount of aptamer immobilized on the SA chip (RU value) of not less than 40%, “+” indicates those with the proportion of not less than 10% and less than 40%, and “−” indicates those with the proportion of less than 10%.

Molecule	binding activity by Biacore
B1	++ (proportion of ADAMTS5 binding amount (RU value) to the amount of aptamer immobilized on the SA chip (RU value) of not less than 40%)
B2	− (proportion of less than 10%)

Same assay, conditions: Table 10

Molecule	binding activity
33 (GGGUAUUGGGGCCUCCACAGCCGAGGCUUGGACUAAACCAAUCUCGA; aptamer; 2'-fluoro at CU, RNA at AG, backbone not given here) [compound 33]	++ (proportion of ADAMTS5 binding amount (RU value) to the amount of aptamer immobilized on the SA chip (RU value) of not less than 40%)
34 (GGGUAUUGGGGCCUCCACAGAAAAAACUUGGACUAAACCAACUCGA; aptamer; 2'-fluoro at CU, RNA at AG, backbone not given here) [compound 34]	++ (proportion of ADAMTS5 binding amount (RU value) to the amount of aptamer immobilized on the SA chip (RU value) of not less than 40%)
35 (GGGUAUUGGGGCCUCCACAGUAAGCACUUGGACUAAACCAGCUCGA; aptamer; 2'-fluoro at CU, RNA at AG, backbone not given here) [compound 35]	++ (proportion of ADAMTS5 binding amount (RU value) to the amount of aptamer immobilized on the SA chip (RU value) of not less than 40%)
36 (GGGUAUUGGGGCCUCCACAGUUUAAACUUGGACUAAACCAACUCGA; aptamer; 2'-fluoro at CU, RNA at AG, backbone not given here) [compound 36]	++ (proportion of ADAMTS5 binding amount (RU value) to the amount of aptamer immobilized on the SA chip (RU value) of not less than 40%)
37 (GGGUAUUGGGGCCUCCACAGUAAAUUCUUGGACUAAACCAACUCGA; aptamer; 2'-fluoro at CU, RNA at AG, backbone not given here) [compound 37]	++ (proportion of ADAMTS5 binding amount (RU value) to the amount of aptamer immobilized on the SA chip (RU value) of not less than 40%)
38 (GGGUAUUGGGGCCUCCACGCUAGAAGGCUGGACUAAACCAACUCGA; aptamer; 2'-fluoro at CU, RNA at AG, backbone not given here) [compound 38]	++ (proportion of ADAMTS5 binding amount (RU value) to the amount of aptamer immobilized on the SA chip (RU value) of not less than 40%)
39 (GGGUAUUGGGGCCUCCACGUAACUAAACUGGACUAAACCAACUCGA; aptamer; 2'-fluoro at CU, RNA at AG, backbone not given here) [compound 39]	++ (proportion of ADAMTS5 binding amount (RU value) to the amount of aptamer immobilized on the SA chip (RU value) of not less than 40%)
40 (GGGUAUUGGGGCCUCCACGCAAUGGUGCUGGACUAAACCAACUCGA; aptamer; 2'-fluoro at CU, RNA at AG, backbone not given here) [compound 40]	++ (proportion of ADAMTS5 binding amount (RU value) to the amount of aptamer immobilized on the SA chip (RU value) of not less than 40%)
41 (GGGUAUUGGGGCCUCCACAUGGAUACAUUGGACUAAACCAACUCGA; aptamer; 2'-fluoro at CU, RNA at AG, backbone not given here) [compound 41]	++ (proportion of ADAMTS5 binding amount (RU value) to the amount of aptamer immobilized on the SA chip (RU value) of not less than 40%)
42 (GGGUAUUGGGGCCUCCACAGAUAAUUCUUGGACUAAACCAACUCGA; aptamer; 2'-fluoro at CU, RNA at AG, backbone not given here) [compound 42]	++ (proportion of ADAMTS5 binding amount (RU value) to the amount of aptamer immobilized on the SA chip (RU value) of not less than 40%)
43 (GGGUAUUGGGGCCUCCACAGAAAAUUCUUGGACUAAACCAACUCGA; aptamer; 2'-fluoro at CU, RNA at AG, backbone not given here) [compound 43]	++ (proportion of ADAMTS5 binding amount (RU value) to the amount of aptamer immobilized on the SA chip (RU value) of not less than 40%)
44 (GGGUAUUGGGGCCUCCACAGAACUUUCUUGGACUAAACCAACUCGA; aptamer; 2'-fluoro at CU, RNA at AG, backbone not given here) [compound 44]	++ (proportion of ADAMTS5 binding amount (RU value) to the amount of aptamer immobilized on the SA chip (RU value) of not less than 40%)
45 (GGGUAUUGGGGCCUCCACAGAAAAGUCUUGGACUAAACCAACUCGA; aptamer; 2'-fluoro at CU, RNA at AG, backbone not given here) [compound 45]	++ (proportion of ADAMTS5 binding amount (RU value) to the amount of aptamer immobilized on the SA chip (RU value) of not less than 40%)

Same assay, conditions: surface plasmon resonance

Molecule	binding to ADAMTS5 (in words)
B1	binds to ADAMTS5
B2	did not bind to ADAMTS5
